Experimental data as given in ChEMBL document CHEMBL3632463, “Discovery and structure-activity analysis of 4-((5-nitropyrimidin-4-yl)amino)benzimidamide derivatives as novel protein arginine methyltransferase 1 (PRMT1) inhibitors” (Bioorg Med Chem Lett, 2015).
pIC50, pKi: −log10 of the molar value. The source made the active and inactive calls. No cut-off for these calls is given here.

Columns and labels:
[1] = biological target: T1, Protein arginine N-methyltransferase 1 (Homo sapiens, UniProt Q99873); assay: Inhibition of PRMT1 (unknown origin) using biotinylated histone H4-derived peptide as substrate at 50 uM after 60 mins by AlphaLISA assay
Target sequence in this assay (Q99873 whole entry, looked up): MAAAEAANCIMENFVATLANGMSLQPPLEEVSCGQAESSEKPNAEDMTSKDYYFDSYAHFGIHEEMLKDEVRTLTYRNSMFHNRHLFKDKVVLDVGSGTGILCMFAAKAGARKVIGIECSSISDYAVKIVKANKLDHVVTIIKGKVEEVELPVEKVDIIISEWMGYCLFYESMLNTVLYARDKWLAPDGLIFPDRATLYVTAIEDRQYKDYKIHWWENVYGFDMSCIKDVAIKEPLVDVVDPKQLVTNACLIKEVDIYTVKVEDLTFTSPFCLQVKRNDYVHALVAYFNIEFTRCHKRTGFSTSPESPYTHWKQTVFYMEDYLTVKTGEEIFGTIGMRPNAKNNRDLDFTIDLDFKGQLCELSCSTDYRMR

[2] = Cytotoxicity against human DLD1 cells by MTT assay; format: functional, cell-based; conditions: DLD-1
[3] = Cytotoxicity against human T24 cells by MTT assay; format: functional, cell-based; conditions: T-24
SH-SY5Y = assay: Cytotoxicity against human SH-SY5Y cells by MTT assay; format: functional, cell-based
A-375 = assay: Cytotoxicity against human A375 cells by MTT assay; format: functional, cell-based
MCF7 = assay: Cytotoxicity against human MCF7 cells by MTT assay; format: functional, cell-based
[4] = Cytotoxicity against human UM-UC-3 cells by MTT assay; format: functional, cell-based; conditions: UMUC3
[5] = biological target: T1, Protein arginine N-methyltransferase 1; assay: Inhibition of PRMT1 (unknown origin) using biotinylated histone H4-derived peptide as substrate after 60 mins by AlphaLISA assay
Target sequence in this assay (Q99873 whole entry): as the sequence (Q99873 whole entry, looked up) above

[6] = biological target: T2, Histone-arginine methyltransferase CARM1 (Homo sapiens, UniProt Q86X55); assay: Inhibition of PRMT4 (unknown origin) using biotinylated histone H4-derived peptide as substrate after 60 mins by AlphaLISA assay
T2 sequence (Q86X55 whole entry): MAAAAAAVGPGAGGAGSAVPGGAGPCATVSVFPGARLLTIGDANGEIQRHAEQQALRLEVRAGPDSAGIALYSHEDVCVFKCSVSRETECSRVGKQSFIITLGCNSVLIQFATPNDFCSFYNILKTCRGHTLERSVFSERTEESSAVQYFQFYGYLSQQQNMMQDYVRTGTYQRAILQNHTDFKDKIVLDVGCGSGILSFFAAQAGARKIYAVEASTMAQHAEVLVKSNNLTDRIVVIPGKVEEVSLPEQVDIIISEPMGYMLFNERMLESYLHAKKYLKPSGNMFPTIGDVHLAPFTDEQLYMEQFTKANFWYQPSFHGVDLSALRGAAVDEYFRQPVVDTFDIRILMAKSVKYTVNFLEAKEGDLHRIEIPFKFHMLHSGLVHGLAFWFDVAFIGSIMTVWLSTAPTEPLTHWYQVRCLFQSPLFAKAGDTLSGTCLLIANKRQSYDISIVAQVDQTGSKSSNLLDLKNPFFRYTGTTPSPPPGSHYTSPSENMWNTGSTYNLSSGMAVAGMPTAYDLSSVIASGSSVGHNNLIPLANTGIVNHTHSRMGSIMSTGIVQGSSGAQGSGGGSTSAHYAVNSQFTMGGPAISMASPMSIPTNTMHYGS

[7] = biological target: Protein arginine N-methyltransferase 5 (Homo sapiens, UniProt O14744); assay: Inhibition of PRMT5 (unknown origin) using biotinylated histone H4-derived peptide as substrate after 60 mins by AlphaLISA assay
[8] = biological target: Protein arginine N-methyltransferase 6 (Homo sapiens, UniProt Q96LA8); assay: Inhibition of PRMT6 (unknown origin) using biotinylated histone H4-derived peptide as substrate after 60 mins by AlphaLISA assay
[9] = biological target: T1, Protein arginine N-methyltransferase 1; assay: Inhibition of PRMT1 in human DLD1 cells assessed as reduction of asymmetric dimethylation of histone H4R3 level at 3 uM by Western blotting; format: cell-based; conditions: DLD-1
Target sequence in this assay (Q99873 whole entry, looked up): as the sequence (Q99873 whole entry, looked up) above

[10] = biological target: T1, Protein arginine N-methyltransferase 1; assay: Inhibition of PRMT1 in human DLD1 cells assessed as effect on symmetric dimethylation of histone H3R8 level at 1 to 30 uM by Western blotting; format: cell-based; conditions: DLD-1
Target sequence in this assay (Q99873 whole entry, looked up): as the sequence (Q99873 whole entry, looked up) above

[11] = biological target: T1, Protein arginine N-methyltransferase 1; assay: Non-competitive inhibition of PRMT1 (unknown origin) using biotinylated histone H4-derived peptide as substrate by Michaelis-Menten kinetic equation analysis
Target sequence in this assay (Q99873 whole entry): as the sequence (Q99873 whole entry, looked up) above

Sequence of Protein arginine N-methyltransferase 5 (O14744 whole entry): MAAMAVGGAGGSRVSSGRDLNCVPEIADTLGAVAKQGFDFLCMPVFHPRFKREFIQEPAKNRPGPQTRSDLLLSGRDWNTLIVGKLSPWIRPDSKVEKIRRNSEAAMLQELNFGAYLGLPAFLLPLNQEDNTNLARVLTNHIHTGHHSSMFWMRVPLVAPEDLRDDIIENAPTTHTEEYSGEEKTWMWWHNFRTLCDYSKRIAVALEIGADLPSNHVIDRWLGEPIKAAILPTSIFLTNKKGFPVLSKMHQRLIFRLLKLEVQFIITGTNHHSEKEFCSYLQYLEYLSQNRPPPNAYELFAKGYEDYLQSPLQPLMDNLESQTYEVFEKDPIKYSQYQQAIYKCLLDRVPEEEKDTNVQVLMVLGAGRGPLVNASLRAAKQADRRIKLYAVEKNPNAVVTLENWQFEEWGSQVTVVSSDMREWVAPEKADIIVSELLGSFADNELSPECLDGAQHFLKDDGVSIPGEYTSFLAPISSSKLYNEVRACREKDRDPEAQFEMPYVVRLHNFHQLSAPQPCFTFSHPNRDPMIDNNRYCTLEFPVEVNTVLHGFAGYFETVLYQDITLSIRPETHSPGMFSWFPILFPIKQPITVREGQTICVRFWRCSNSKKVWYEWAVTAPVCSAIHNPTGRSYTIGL
Sequence of Protein arginine N-methyltransferase 6 (Q96LA8 whole entry): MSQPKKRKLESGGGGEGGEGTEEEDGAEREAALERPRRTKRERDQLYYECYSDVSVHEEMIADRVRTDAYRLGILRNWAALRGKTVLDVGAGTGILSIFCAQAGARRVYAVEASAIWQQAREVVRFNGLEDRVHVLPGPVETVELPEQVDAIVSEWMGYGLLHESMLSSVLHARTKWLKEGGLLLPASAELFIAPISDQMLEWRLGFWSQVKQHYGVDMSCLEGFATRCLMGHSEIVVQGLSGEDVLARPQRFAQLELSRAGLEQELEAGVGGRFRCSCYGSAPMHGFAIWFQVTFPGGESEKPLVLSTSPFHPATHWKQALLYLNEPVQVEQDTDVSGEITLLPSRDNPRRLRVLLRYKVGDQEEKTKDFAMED

Row | Compound | inhibition [1] | pIC50 [2] | pIC50 [3] | pIC50 (SH-SY5Y) | pIC50 (A-375) | pIC50 (MCF7) | pIC50 [4] | other results
1 | COc1cc(Nc2ncnc(Nc3ccc(C(=N)N)cc3)c2[N+](=O)[O-])cc(OC)c1OC | 44% | 4.08 | 4.74 | 4.79 | 4.06 | 4.23 | 4.18 | 
2 | N=C(N)c1ccc(Nc2ncnc(Nc3ccccc3)c2[N+](=O)[O-])cc1 | 9% |  |  |  |  |  |  | 
3 | N=C(N)c1ccc(Nc2ncnc(Nc3ccc(N)cc3)c2[N+](=O)[O-])cc1 | 28% |  |  |  |  |  |  | 
4 | N#Cc1ccc(Nc2ncnc(Nc3ccc(C(=N)N)cc3)c2[N+](=O)[O-])cc1 |  | 5.36 | 4.88 | 4.94 | < 4.00 | 4.30 | 4.34 | pIC50 [5]: 5.70; pIC50 [6]: 5.00; pIC50 [7]: < 4.00; pIC50 [8]: < 4.00; inhibition [9]: Active; inhibition [10]: inactive; pKi [11]: 5.77
5 | O=C(Nc1ccc2c(O)cc(S(=O)(=O)O)cc2c1)Nc1ccc2c(O)cc(S(=O)(=O)O)cc2c1 |  | < 4.00 | < 4.00 | < 4.00 | < 4.00 | < 4.00 | < 4.00 | 
6 | N=C(N)c1ccc(Nc2ncnc(Nc3ccc(S(N)(=O)=O)cc3)c2[N+](=O)[O-])cc1 | 28% | 5.07 | 4.06 | 4.03 | < 4.00 | < 4.00 | 4.07 | 
7 | N=C(N)c1ccc(Nc2ncnc(Nc3ccc(C(N)=O)cc3)c2[N+](=O)[O-])cc1 |  |  |  |  |  |  |  | pIC50 [5]: 5.03
8 | N=C(N)c1ccc(Nc2ncnc(NCC(N)=O)c2[N+](=O)[O-])cc1 | 49% |  |  |  |  |  |  | 
